Data on 24 molecules can be found in patent US20260200939A1, “MOLECULAR GLUE DEGRADER COMPOUNDS AND USES THEREOF” (Novartis AG, priority 2022, published 2026).

Molecules are shown by their SMILES. Where two headings read alike, the source gives them in different places. Bounds are passed on as bounds.

The target of one test is T1, Recombinant RNF126 (Homo sapiens, UniProt Q9BV68).
T1 construct: FLAG (C); host or cells: HEK293T
Kind of test: RNF126 Binding Assay, gel-based ABPP. The method, then: RNF126 mammalian expression plasmid with a C-terminal FLAG tag was purchased from Origene (Origene Technologies Inc., RC204986). The plasmid was transformed into NEB 5-alpha Competent E. coli (DH5) cells (NEB product no. C2987H). The following day, a single transformed colony was used to inoculate 50 ml of nutrient rich LB medium containing kanamycin (50 μg/ml) and was incubated at 37° C. overnight, with agitation (250 rpm). A Miniprep (Qiagen) kit was used to isolate the plasmid before sequence verification with appropriate primers.
HEK293T cells were grown to 30-50% confluency in DMEM supplemented with 10% FBS (Corning) and maintained at 37° C. with 5% CO2. Immediately before transfection, media was replaced with DMEM containing 5% FBS. Each plate was transfected with 24 μg of overexpression plasmid with 24 μL Lipofectamine 3000 (Invitrogen) in Opti-MEM. After 48 h cells were collected in PBS, lysed by sonication, and batch bound with anti-DYKDDDDK resin (GenScript, L00432) for 2 hours. Lysate and resin were washed with PBS and eluted with 133.33 μg/ml 3×FLAG peptide (ApexBio, A6001) in PBS. Five elutions were performed for 15 minutes each. Elutions were concentrated and the protein was stored in PBS. Concentration and purity was determined using the BCA assay and western blotting.
Recombinant RNF126 ([…]) was pre-treated with either DMSO vehicle or covalent ligand at 37° C. for 30 min in 25 μL of PBS, and subsequently treated with of IA-Rhodamine (concentrations designated in figure legends) (Setareh Biotech) at room temperature for 1 h in the dark. The reaction was stopped by addition of 4×reducing Laemmli SDS sample loading buffer (Alfa Aesar). After boiling at 95° C. for 5 min, the samples were separated on precast 4-20% Criterion TGX gels (Bio-Rad). Probe-labeled proteins were analyzed by in-gel fluorescence using a ChemiDoc MP (Bio-Rad).

Another test has as its target T2, BRD4 long (Homo sapiens, UniProt O60885).
T2 construct: endogenous in cells; host or cells: HEK293T
The test is described as follows: BRD4 (long) degradation assay, Western blotting. It counts as cell-based. The gist of the method: (§1)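 Cell lines were grown at 37° C with 5% CO2 (HEK293T and C33A in DMEM, A549 in F-12K, 22RV1, LNCaP and Mino in RPMI-1640, K562 and MV-4-11 in IMDM, all with 10% FBS). Lysates were BCA-normalized, then SDS/PAGE Western blots were probed with target-specific antibodies and read by IR680/IR800 fluorescent secondaries on Li-Cor.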
In general terms: A western blot detects proteins with antibodies after separation by electrophoresis.

For another test, the target named is T3, BRD4 short (Homo sapiens, UniProt O60885).
T3 construct: endogenous in cells; host or cells: HEK293T
The test is described as follows: BRD4 (short) degradation assay, Western blotting. It counts as cell-based. The essentials: as §1

Where [1] appears, read: range with lower bound in nM and upper bound in μM.
Where [2] appears, read: first value of cell (long/short).
Setting [3] is: second value of cell (long/short).
Where [4] appears, read: first value of cell, range with lower bound in nM and upper bound in μM.
Setting [5] is: second value of cell, range with lower bound in nM and upper bound in μM.

T1 sequence (Q9BV68 whole entry): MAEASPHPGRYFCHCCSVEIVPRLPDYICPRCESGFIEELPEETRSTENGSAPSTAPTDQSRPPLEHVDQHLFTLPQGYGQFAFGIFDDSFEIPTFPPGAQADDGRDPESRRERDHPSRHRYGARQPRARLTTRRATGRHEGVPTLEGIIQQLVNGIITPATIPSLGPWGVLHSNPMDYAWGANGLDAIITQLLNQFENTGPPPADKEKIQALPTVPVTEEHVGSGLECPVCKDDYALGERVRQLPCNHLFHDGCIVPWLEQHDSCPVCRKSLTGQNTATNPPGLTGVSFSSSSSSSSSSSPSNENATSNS

For the molecule `COc1ccc(C(=O)/C(C)=C/C(=O)N2CCNCC2)cc1` [Compound 145, (E)-1-(4-methoxyphenyl)-2-methyl-4-(piperazin-1-yl)but-2-ene-1,4-dione], the 50% inhibitory concentration (IC50) at Recombinant RNF126 was more than 50000 nM. Consider `COc1ccccc1C(=O)/C=C/C(=O)N1CCNCC1` [Compound 147, (E)-1-(2-methoxyphenyl)-4-(piperazin-1-yl)but-2-ene-1,4-dione], for which the IC50 on Recombinant RNF126 lay within 1000 to 10000 nM. In the case of `O=C(/C=C/C(=O)N1CCNCC1)c1ccccc1F` [Compound 149, (E)-1-(2-fluorophenyl)-4-(piperazin-1-yl)but-2-ene-1,4-dione], at Recombinant RNF126, the IC50 fell in the range of 1000 to 10000 nM. Regarding `O=C(/C=C/C(=O)N1CCNCC1)c1ccc(F)cc1` [Compound 150, (E)-1-(4-fluorophenyl)-4-(piperazin-1-yl)but-2-ene-1,4-dione], the IC50 on Recombinant RNF126 lay in the range of 1000 to 10000 nM.

On to `O=C(/C=C/C(=O)N1CCNCC1)c1ccccc1` [Compound 152, (E)-1-phenyl-4-(piperazin-1-yl)but-2-ene-1,4-dione], for which, on Recombinant RNF126 (setting [1]), the IC50 lay in the range of 100 to 1000 nM. For `COc1ccc(C(=O)/C=C(\C#N)C(=O)N2CCN(C(=O)OC(C)(C)C)CC2)cc1` [Compound 153, tert-butyl (E)-4-(2-cyano-4-(4-methoxyphenyl)-4-oxobut-2-enoyl)piperazine-1-carboxylate], the IC50 on Recombinant RNF126 (setting [1]) fell in the range of 100 to 1000 nM. `CC(C)(C)OC(=O)N1CCN(C(=O)/C=C/C(=O)c2ccccc2Br)CC1` [Compound 154, tert-butyl (E)-4-(4-(2-bromophenyl)-4-oxobut-2-enoyl)piperazine-1-carboxylate]: the IC50 at Recombinant RNF126 (setting [1]) was 100 to 1000 nM. As for `CC(C)(C)OC(=O)N1CCN(C(=O)/C=C/C(=O)c2cccc(F)c2)CC1` [Compound 155, tert-butyl (E)-4-(4-(3-fluorophenyl)-4-oxobut-2-enoyl)piperazine-1-carboxylate], at Recombinant RNF126 (setting [1]), the IC50 was 100 to 1000 nM.

Take `COc1cccc(C(=O)/C=C/C(=O)N2CCN(C(=O)OC(C)(C)C)CC2)c1` [Compound 156, tert-butyl (E)-4-(4-(3-methoxyphenyl)-4-oxobut-2-enoyl)piperazine-1-carboxylate]: at Recombinant RNF126, the concentration for half-maximal inhibition (IC50) was less than 100 nM. As to `Cc1cccc(C(=O)/C=C/C(=O)N2CCN(C(=O)OC(C)(C)C)CC2)c1` [Compound 157, tert-butyl (E)-4-(4-oxo-4-(m-toly1)but-2-enoyl)piperazine-1-carboxylate], at Recombinant RNF126, the IC50 was less than 100 nM. On to `CC(C)(C)OC(=O)N1CCN(C(=O)/C=C/C(=O)c2ccccc2Cl)CC1` [Compound 161, tert-butyl (E)-4-(4-(2-chlorophenyl)-4-oxobut-2-enoyl)piperazine-1-carboxylate], for which, at Recombinant RNF126 (setting [1]), the IC50 fell in the range of 100 to 1000 nM. As to `CC(C)(C)OC(=O)N1CCN(C(=O)/C=C/C(=O)c2cccc(C(F)(F)F)c2)CC1` [Compound 162, tert-butyl (E)-4-(4-oxo-4-(3-(trifluoromethyl)phenyl)but-2-enoyl)piperazine-1-carboxylate], on Recombinant RNF126, the IC50 is less than 100 nM. As for `CC(C)(C)OC(=O)N1CCN(C(=O)/C=C/C(=O)c2cccc(Br)c2)CC1` [Compound 163, tert-butyl (E)-4-(4-(3-bromophenyl)-4-oxobut-2-enoyl)piperazine-1-carboxylate], at Recombinant RNF126, the IC50 was less than 100 nM. With `CC(C)(C)OC(=O)N1CCN(C(=O)/C=C/C(=O)c2ccc(Br)cc2)CC1` [Compound 164, tert-butyl (E)-4-(4-(4-bromophenyl)-4-oxobut-2-enoyl)piperazine-1-carboxylate], on Recombinant RNF126, the IC50 is less than 100 nM. `COc1ccc(C(=O)/C=C(\C)C(=O)N2CCN(C(=O)OC(C)(C)C)CC2)cc1` [Compound 166, tert-butyl (E)-4-(4-(4-methoxyphenyl)-2-methyl-4-oxobut-2-enoyl)piperazine-1-carboxylate]: on Recombinant RNF126, the IC50 is 10000 to 50000 nM. Regarding `COc1ccc2c(c1)CCCN2C(=O)/C=C/C(=O)N1CCN(C(=O)C[C@@H]2N=C(c3ccc(Cl)cc3)c3c(sc(C)c3C)-n3c(C)nnc32)CC1` [Compound 251, (S,E)-1-(4-(2-(4-(4-chlorophenyl)-2,3,9-trimethyl-6H-thieno[3,2-f][1,2,4]triazolo[4,3-a][1,4]diazepin-6-yl)acetyl)piperazin-1-yl)-4-(6-methoxy-3,4-dihydroquinolin-1(2H)-yl)but-2-ene-1,4-dione], the DC50 at BRD4 long (setting [2]) was more than 5000 nM; on BRD4 short (setting [3]), 10 to 100 nM. Regarding `COc1ccc2c(c1)CCN(C(=O)/C=C/C(=O)N1CCN(C(=O)C[C@@H]3N=C(c4ccc(Cl)cc4)c4c(sc(C)c4C)-n4c(C)nnc43)CC1)C2` [Compound 252, (S,E)-1-(4-(2-(4-(4-chlorophenyl)-2,3,9-trimethyl-6H-thieno[3,2-f][1,2,4]triazolo[4,3-a][1,4]diazepin-6-yl)acetyl)piperazin-1-yl)-4-(6-methoxy-3,4-dihydroisoquinolin-2(1H)-y1)but-2-ene-1,4-dione], the DC50 at BRD4 long (setting [2]) and at BRD4 short (setting [3]) was more than 5000 nM in each case. For `Cc1sc2c(c1C)C(c1ccc(Cl)cc1)=N[C@@H](CC(=O)NC1CC(NC(=O)/C=C/C(=O)N3CC4(COC4)C3)C1)c1nnc(C)n1-2` (stereo partly drawn) [Compound 253, (S,E)-N-(3-(2-(4-(4-chlorophenyl)-2,3,9-trimethyl-6H-thieno[3,2-f][1,2,4]triazolo[4,3-a][1,4]diazepin-6-yl)acetamido)cyclobutyl)-4-oxo-4-(2-oxa-6-azaspiro[3.3]heptan-6-yl)but-2-enamide], the DC50 on BRD4 long (setting [2]) and at BRD4 short (setting [3]) was more than 5000 nM each time. As to `Cc1sc2c(c1C)C(c1ccc(Cl)cc1)=N[C@@H](CC(=O)N[C@H]1C[C@@H](NC(=O)/C=C/C(=O)C(C)(C)C)C1)c1nnc(C)n1-2` [Compound 277, (E)-N-((1R,3s)-3-(2-((S)-4-(4-chlorophenyl)-2,3,9-trimethyl-6H-thieno[3,2-f][1,2,4]triazolo[4,3-a][1,4]diazepin-6-yl)acetamido)cyclobutyl)-5,5-dimethyl-4-oxohex-2-enamide], the DC50 on BRD4 long (setting [2]) and on BRD4 short (setting [3]) was 10 to 100 nM each time. Regarding `Cc1sc2c(c1C)C(c1ccc(Cl)cc1)=N[C@@H](CC(=O)N[C@H]1C[C@H](NC(=O)/C=C/C(=O)C(C)(C)C)C1)c1nnc(C)n1-2` [Compound 278, (E)-N-((1S,3r)-3-(2-((S)-4-(4-chlorophenyl)-2,3,9-trimethyl-6H-thieno[3,2-f][1,2,4]triazolo[4,3-a][1,4]diazepin-6-yl)acetamido)cyclobutyl)-5,5-dimethyl-4-oxohex-2-enamide], the DC50 on BRD4 long (setting [2]) and at BRD4 short (setting [3]) was 10 to 100 nM throughout. Consider `COc1ccc(/C=C/S(=O)(=O)N2CCN(C(=O)C[C@@H]3N=C(c4ccc(Cl)cc4)c4c(sc(C)c4C)-n4c(C)nnc43)CC2)cc1` [Compound 279, (S,E)-2-(4-(4-chlorophenyl)-2,3,9-trimethyl-6H-thieno[3,2-f][1,2,4]triazolo[4,3-a][1,4]diazepin-6-yl)-1-(4-((4-methoxystyryl)sulfonyl)piperazin-1-yl)ethan-1-one], for which the DC50 at BRD4 long (setting [2]) and at BRD4 short (setting [3]) was more than 5000 nM throughout.

Turning to `Cc1sc2c(c1C)C(c1ccc(Cl)cc1)=N[C@@H](CC(=O)N[C@H]1C[C@H](NC(=O)/C=C/C(=O)c3ccc(Cl)cc3Cl)C1)c1nnc(C)n1-2` [Compound 281, (E)-N-((1S,3r)-3-(2-((S)-4-(4-chlorophenyl)-2,3,9-trimethyl-6H-thieno[3,2-f][1,2,4]triazolo[4,3-a][1,4]diazepin-6-yl)acetamido)cyclobutyl)-4-(2,4-dichlorophenyl)-4-oxobut-2-enamide], the DC50 at BRD4 long (setting [4]) and at BRD4 short (setting [5]) was 100 to 1000 nM throughout. Turning to `Cc1sc2c(c1C)C(c1ccc(Cl)cc1)=N[C@@H](CC(=O)N[C@H]1C[C@H](NC(=O)/C=C/C(=O)c3cccc(Cl)c3Cl)C1)c1nnc(C)n1-2` [Compound 287, (E)-N-((1S,3r)-3-(2-((S)-4-(4-chlorophenyl)-2,3,9-trimethyl-6H-thieno[3,2-f][1,2,4]triazolo[4,3-a][1,4]diazepin-6-yl)acetamido)cyclobutyl)-4-(2,3-dichlorophenyl)-4-oxobut-2-enamide], the DC50 at BRD4 long (setting [2]) and at BRD4 short (setting [3]) was 1000 to 5000 nM in each case. `Cc1sc2c(c1C)C(c1ccc(Cl)cc1)=N[C@@H](CC(=O)N[C@H]1C[C@H](NC(=O)/C=C/C(=O)c3cc(Cl)ccc3Cl)C1)c1nnc(C)n1-2` [Compound 288, (E)-N-((1S,3r)-3-(2-((S)-4-(4-chlorophenyl)-2,3,9-trimethyl-6H-thieno[3,2-f][1,2,4]triazolo[4,3-a][1,4]diazepin-6-yl)acetamido)cyclobutyl)-4-(2,5-dichlorophenyl)-4-oxobut-2-enamide]: the half-maximal degradation concentration (DC50) at BRD4 long (setting [4]) and on BRD4 short (setting [5]) was 100 to 1000 nM each time.

A word on the IC50: it is the point on the concentration scale where inhibition reaches its midpoint. For orientation: DC50 means the concentration at which degradation of the target reaches its halfway point. Lower therefore signals a more potent degrader.
